Measured values reported in ChEMBL document CHEMBL4177586, “Small molecule adjuvants that suppress both chromosomal and mcr-1 encoded colistin-resistance and amplify colistin efficacy in polymyxin-susceptible bacteria” (Bioorg Med Chem, 2017).
Calls of active or inactive are those of the source. The calls are words filed in the database; no cut-off is given here.

What was measured:
Acinetobacter baumannii [1] = assay: Reduction in lipid A modification in Acinetobacter baumannii ATCC 17978 at 30 uM incubated for 24 hrs by MALDI-TOF mass spectrometry; format: functional, organism-based
Acinetobacter baumannii [2] = assay: Potentiation of colistin-induced antimicrobial activity against colistin-resistant Acinetobacter baumannii PM4112 assessed as colistin MIC at 15 uM incubated for overnight duration by CLSI based method (reference value: 1024 ug/ml); format: functional
Acinetobacter baumannii [3] = assay: Potentiation of colistin-induced antimicrobial activity against colistin-resistant Acinetobacter baumannii PM4112 assessed as colistin MIC at 60 uM incubated for overnight duration by CLSI based method (reference value: 1024 ug/ml); format: functional
Klebsiella pneumoniae [4] = assay: Potentiation of colistin-induced antimicrobial activity against colistin-resistant Klebsiella pneumoniae C5 assessed as colistin MIC at 30 uM incubated for overnight duration by CLSI based method (reference value: 128 ug/ml); format: functional
Acinetobacter baumannii [5] = assay: Potentiation of colistin-induced antimicrobial activity against colistin-resistant Acinetobacter baumannii PM4112 assessed as colistin MIC at 30 uM incubated for overnight duration by CLSI based method (reference value: 1024 ug/ml); format: functional
Klebsiella pneumoniae [6] = assay: Potentiation of colistin-induced antimicrobial activity against colistin-resistant Klebsiella pneumoniae C3 assessed as colistin MIC at 30 uM incubated for overnight duration by CLSI based method (reference value: 512 ug/ml); format: functional
Escherichia coli [7] = assay: Potentiation of colistin-induced antimicrobial activity against Escherichia coli YD626 expressing mcr1 gene assessed as reduction in colistin MIC at 60 uM incubated for overnight duration by CLSI based method relative to colistin alone control; format: functional
Acinetobacter baumannii [8] = assay: Potentiation of colistin-induced antimicrobial activity against Acinetobacter baumannii SM1536 expressing mcr1 gene assessed as colistin MIC at 60 uM incubated for overnight duration by CLSI based method (reference value: 64 ug/ml); format: functional
Klebsiella pneumoniae [9] = assay: Potentiation of colistin-induced antimicrobial activity against colistin-resistant Klebsiella pneumoniae B9 assessed as colistin MIC at 15 uM incubated for overnight duration by CLSI based method (reference value: 512 ug/ml); format: functional
Acinetobacter baumannii [10] = assay: Potentiation of colistin-induced antimicrobial activity against Acinetobacter baumannii ATCC 17978 expressing mcr1 gene assessed as reduction in colistin MIC at 60 uM incubated for overnight duration by CLSI based method relative to colistin alone control; format: functional
Klebsiella pneumoniae [11] = assay: Potentiation of colistin-induced antimicrobial activity against colistin-resistant Klebsiella pneumoniae B9 assessed as colistin MIC at 60 uM incubated for overnight duration by CLSI based method (reference value: 512 ug/ml); format: functional
Klebsiella pneumoniae [12] = assay: Potentiation of colistin-induced antimicrobial activity against colistin-resistant Klebsiella pneumoniae C5 assessed as colistin MIC at 60 uM incubated for overnight duration by CLSI based method (reference value: 128 ug/ml); format: functional
Acinetobacter baumannii [13] = assay: Potentiation of colistin-induced antimicrobial activity against colistin-resistant Acinetobacter baumannii PM3941 assessed as colistin MIC at 30 uM incubated for overnight duration by CLSI based method (reference value: 512 ug/ml); format: functional
Escherichia coli [14] = assay: Potentiation of colistin-induced antimicrobial activity against Escherichia coli ATCC 25922 expressing mcr1 gene assessed as reduction in colistin MIC at 60 uM incubated for overnight duration by CLSI based method relative to colistin alone control; format: functional
Acinetobacter baumannii [15] = assay: Potentiation of colistin-induced antimicrobial activity against colistin-resistant Acinetobacter baumannii PM3942 assessed as reduction in colistin MIC at 15 uM incubated for overnight duration by CLSI based method relative to colistin alone control; format: functional
Klebsiella pneumoniae [16] = assay: Potentiation of colistin-induced antimicrobial activity against colistin-resistant Klebsiella pneumoniae C5 assessed as colistin MIC at 15 uM incubated for overnight duration by CLSI based method (reference value: 128 ug/ml); format: functional
Acinetobacter baumannii [17] = assay: Potentiation of colistin-induced antimicrobial activity against colistin-resistant Acinetobacter baumannii PM4119 assessed as reduction in colistin MIC at 60 uM incubated for overnight duration by CLSI based method relative to colistin alone control; format: functional
Klebsiella pneumoniae [18] = assay: Potentiation of colistin-induced antimicrobial activity against colistin-resistant Klebsiella pneumoniae B9 assessed as colistin MIC at 30 uM incubated for overnight duration by CLSI based method (reference value: 512 ug/ml); format: functional

With `CCCCCCc1ccc(-c2cn(C(C)C)c(N)n2)cc1` the Activity (Acinetobacter baumannii [1]) was “Active”.

`CCCCCc1ccc(C(=O)NCCn2cc(CCCCCc3cnc(N)n3Cc3ccc(CCCC)cc3)nn2)cc1` gave an MIC (Acinetobacter baumannii [2]) of 32 µg/mL, an MIC (Acinetobacter baumannii [3]) of 8 µg/mL and an MIC (Klebsiella pneumoniae [4]) of 4 µg/mL. The MIC (Acinetobacter baumannii [5]) was 16 µg/mL, the MIC (Klebsiella pneumoniae [6]) was 16 µg/mL and the “fold change (FC)” value (Escherichia coli [7]) was >2048. For the same compound, the MIC (Acinetobacter baumannii [8]) was 1 µg/mL, the MIC (Klebsiella pneumoniae [9]) was 32 µg/mL and the “fold change (FC)” value (Acinetobacter baumannii [10]) was 64. The MIC (Klebsiella pneumoniae [11]) was 4 µg/mL, the MIC (Klebsiella pneumoniae [12]) was 2 µg/mL and the MIC (Acinetobacter baumannii [13]) was 16 µg/mL. The “fold change (FC)” value (Escherichia coli [14]) was 256, the “fold change (FC)” value (Acinetobacter baumannii [15]) was 16 and the MIC (Klebsiella pneumoniae [16]) was 32 µg/mL. For the same compound, the “fold change (FC)” value (Acinetobacter baumannii [17]) was 512 and the MIC (Klebsiella pneumoniae [18]) was 8 µg/mL.
